This note sets out measurements from patent US20250195530A1, “POLQ INHIBITORS” (ASTRAZENECA AB, priority 2022, published 2025).

One assay concerns DLD-1 cells. Put plainly: Inhibition of proliferation, DLD-1 BRCA2 wt control (Cell Titre Glo 3D). As to conditions: for IC50: Homo sapiens; for POLQ PD Prolif Lumin DLD1 mean pIC50: DLD1 BRCA2 wt. The assay is classed as cell-based. A digest of the protocol:
(§1)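 Proliferation of HR-deficient DLD-1 BRCA2−/− versus isogenic wild-type DLD-1 was measured by ATP luminescence (CellTiter-Glo 3D). Compound exposure lasted 12 or 7 days, respectively, with a fresh dose on day 6. IC50 was the concentration halving maximal signal.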

In a further assay the test system is DLD-1 BRCA2−/− cells. Put plainly: Homologous recombination synthetic lethal inhibition of proliferation, DLD-1 BRCA2-/- (Cell Titre Glo 3D). The assay is classed as cell-based. As to conditions: for IC50: Homo sapiens; for POLQ PD Prolif Lumin BRCA2 −/− mean pIC50: DLD-1 BRCA2 −/−. The procedure, abridged:
as §1

The mark [1] stands for this setting: DLD-1, second proliferation column (c6), DLD-1 BRCA2 wt control, read-out: POLQ PD Prolif Lumin (converted).
Where [2] appears, read: DLD-1, first proliferation column (c5), DLD-1 BRCA2-/-, read-out: POLQ PD Prolif Lumin (converted).
Setting [3] is: DLD-1, second proliferation column (c6), taken as DLD-1 BRCA2 wt, read-out: POLQ PD Prolif Lumin (converted).
Setting [4] is: DLD-1, first proliferation column (c5), taken as DLD-1 BRCA2-/-, read-out: POLQ PD Prolif Lumin (converted).
Where [5] appears, read: DLD-1, DLD-1 BRCA2 wt control proliferation, column head only partly shown, read-out: POLQ PD Prolif Lumin (converted).
Setting [6] is: DLD-1, DLD-1 BRCA2-/- proliferation, column head only partly shown, read-out: POLQ PD Prolif Lumin (converted).
[7] abbreviates: DLD-1, 168 h, DLD-1 BRCA2 wt cells, 7 days, read-out: POLQ PD Prolif Lumin DLD1 mean pIC50 (converted).
Setting [8] is: DLD-1, 288 h, DLD-1 BRCA2−/− cells, 12 days, read-out: POLQ PD Prolif Lumin BRCA2 −/− mean pIC50 (converted).
[9] abbreviates: DLD-1, DLD1 BRCA2 wt cells, mean, read-out: POLQ PD Prolif Lumin DLD1 mean PIC50 (converted).
[10] abbreviates: DLD-1, DLD-1 BRCA2 −/− cells, mean, read-out: POLQ PD Prolif Lumin BRCA2 −/− mean pIC50 (converted).
Where [11] appears, read: DLD-1, DLD1 BRCA2 wt, mean, read-out: POLQ PD Prolif Lumin DLD1 mean pIC50 (converted).
Where [12] appears, read: DLD-1, DLD-1 BRCA2 −/−, mean, read-out: POLQ PD Prolif Lumin BRCA2 −/− mean pIC50 (converted).

Read-outs that look alike come from different tables or passages of the source.

In the case of `Cc1cc(OCCN2CCNCC2)ccc1-c1nc2c(OC3(C)CC3)ncnc2n1Cc1cc(Cl)ccn1` [Example T529, 9-((4-chloropyridin-2-yl)methyl)-8-(2-methyl-4-(2-(piperazin-1-yl)ethoxy)phenyl)-6-(1-methylcyclopropoxy)-9H-purine], the IC50 with DLD-1 cells (setting [1]) is over 10000 nM; with DLD-1 BRCA2−/− cells (setting [2]), 631 nM.
For the molecule `Cc1ccnc(Cn2c(-c3cccc(OCCN4CC(O)C4)c3Cl)nc3c(OC4(C)CC4)ncnc32)c1` [Example T360, 1-(2-(2-chloro-3-(6-(1-methylcyclopropoxy)-9-((4-methylpyridin-2-yl)methyl)-9H-purin-8-yl)phenoxy)ethyl)azetidin-3-ol], the results for the IC50 with DLD-1 cells (setting [3]) and in the assay with DLD-1 BRCA2−/− cells (setting [4]) were over 10000 nM and 794 nM, respectively.
With `CC1(Oc2ncnc3c2nc(-c2cccc(O[C@H]4C[C@@H](C(=O)O)C4)c2Cl)n3Cc2cc(Cl)ccc2C#N)CC1` [Example U84, (1s,3s)-3-(2-chloro-3-(9-(5-chloro-2-cyanobenzyl)-6-(1-methylcyclopropoxy)-9H-purin-8-yl)phenoxy)cyclobutane-1-carboxylic acid], in the assay on DLD-1 cells (mean), the “POLQ PD Prolif Lumin DLD1 mean pIC50” value is under 5.0. For the same molecule, the “POLQ PD Prolif Lumin BRCA2 −/− mean pIC50” value in the assay on DLD-1 BRCA2−/− cells (mean) is given as 7.3.
Regarding `Cc1cnc(Cn2c(-c3ccc(OC[C@H]4CCCN4C)cc3Cl)nc3c(OC4(C)CC4)ncnc32)s1` [Example T240, (R)-2-((8-(2-chloro-4-((1-methylpyrrolidin-2-yl)methoxy)phenyl)-6-(1-methylcyclopropoxy)-9H-purin-9-yl)methyl)-5-methylthiazole], the IC50 is over 10000 nM in the assay on DLD-1 cells (setting [5]) and 316 nM with DLD-1 BRCA2−/− cells (setting [6]).
The matching figures for `CC(CCOc1ccc(-c2nc3c(OC4(C)CC4)ncnc3n2Cc2cc(Cl)ccc2F)c(Cl)c1)C(=O)O` (racemic) [Example T268, 4-(3-chloro-4-(9-(5-chloro-2-fluorobenzyl)-6-(1-methylcyclopropoxy)-9H-purin-8-yl)phenoxy)-2-methylbutanoic acid]: over 10000 nM and 63.1 nM.
For the molecule `CC1(Oc2ncnc3c2nc(-c2ccc(OCC(C)(C)C(=O)O)cc2Cl)n3Cc2cccc(Cl)c2)CC1` [Example 32, 3-(3-Chloro-4-(9-(3-chlorobenzyl)-6-(1-methylcyclopropoxy)-9H-purin-8-yl)phenoxy)-2,2-dimethylpropanoic acid], the IC50 was over 10000 nM in the assay with DLD-1 cells (DLD-1, 168 h, DLD-1 (BRCA2 wt control), 7 days, Cell Titre Glo 3D, read-out: POLQ PD Prolif Lumin DLD1 Mean pIC50 (converted)) and 631 nM with DLD-1 BRCA2−/− cells (DLD-1, 288 h, DLD-1 BRCA2−/−, 12 days, Cell Titre Glo 3D, read-out: POLQ PD Prolif Lumin BRCA2 −/− Mean pIC50 (converted)).
`COc1ccc(Cl)cc1Cn1c(-c2cccc(O[C@H]3C[C@H](C(=O)O)C3)c2Cl)nc2c(OC3(C)CC3)ncnc21` [Example U51, (1r,3r)-3-(2-chloro-3-(9-(5-chloro-2-methoxybenzyl)-6-(1-methylcyclopropoxy)-9H-purin-8-yl)phenoxy)cyclobutane-1-carboxylic acid]: the “POLQ PD Prolif Lumin DLD1 mean pIC50” value with DLD-1 cells (mean) was under 5.0. In the assay on DLD-1 BRCA2−/− cells (mean), the “POLQ PD Prolif Lumin BRCA2 −/− mean pIC50” value is reported as 7.2.
For `Cc1cccc(Cn2c(-c3ccc(OCCN4CCNCC4)cc3Cl)nc3c(OC4(C)CC4)ncnc32)n1` [Example K7, 8-(2-chloro-4-(2-(piperazin-1-yl)ethoxy)phenyl)-6-(1-methylcyclopropoxy)-9-((6-methylpyridin-2-yl)methyl)-9H-purine], the values for the IC50 in the assay with DLD-1 cells (setting [7]) and with DLD-1 BRCA2−/− cells (setting [8]) were over 10000 nM and 1260 nM, respectively.
Turning to `CC1(Oc2ncnc3c2nc(-c2cccc(OCC(=O)O)c2Cl)n3Cc2cccc(Cl)c2)CC1` [Example T41, 2-(2-chloro-3-(9-(3-chlorobenzyl)-6-(1-methylcyclopropoxy)-9H-purin-8-yl)phenoxy)acetic acid], the IC50 is over 10000 nM in the assay with DLD-1 cells (setting [9]) and over 7940 nM in the assay on DLD-1 BRCA2−/− cells (setting [10]).
For `Cc1ccnc(Cn2c(-c3ccc(OCCN4CC(O)C4)cc3Cl)nc3c(OC4(C)CC4)ncnc32)c1` [Example 26, 1-(2-(3-Chloro-4-(6-(1-methylcyclopropoxy)-9-((4-methylpyridin-2-yl)methyl)-9H-purin-8-yl)phenoxy)ethyl)azetidin-3-ol], the IC50 was over 10000 nM with DLD-1 cells (setting [7]) and 501 nM in the assay with DLD-1 BRCA2−/− cells (setting [8]).
Turning to `Cc1ccnc(Cn2c(-c3ccc(CC(=O)N4C[C@H]5C[C@@H](C4)O5)cc3Cl)nc3c(OC4(C)CC4)ncnc32)c1` [Example T547, rel-1-((1R,5S)-6-oxa-3-azabicyclo[3.1.1]heptan-3-yl)-2-(3-chloro-4-(6-(1-methylcyclopropoxy)-9-((4-methylpyridin-2-yl)methyl)-9H-purin-8-yl)phenyl)ethan-1-one], the IC50 is over 10000 nM in the assay with DLD-1 cells (setting [1]) and 501 nM in the assay with DLD-1 BRCA2−/− cells (setting [2]).
Regarding `CC1(Oc2ncnc3c2nc(-c2ccc(OCCN4CCNCC4)cc2Cl)n3Cc2cnc(Cl)s2)CC1` [Example T146, 2-chloro-5-((8-(2-chloro-4-(2-(piperazin-1-yl)ethoxy)phenyl)-6-(1-methylcyclopropoxy)-9H-purin-9-yl)methyl)thiazole], the figures for the IC50 in the assay with DLD-1 cells (setting [1]) and in the assay on DLD-1 BRCA2−/− cells (setting [2]) were over 10000 nM and 1260 nM, respectively.
Regarding `Cc1ccnc(Cn2c(-c3ccc(CC(=O)N4CCC4)cc3Cl)nc3c(OC4(C)CC4)ncnc32)c1` [Example T308, 1-(azetidin-1-yl)-2-(3-chloro-4-(6-(1-methylcyclopropoxy)-9-((4-methylpyridin-2-yl)methyl)-9H-purin-8-yl)phenyl)ethan-1-one], the values for the IC50 in the assay with DLD-1 cells (setting [3]) and in the assay on DLD-1 BRCA2−/− cells (setting [4]) were over 10000 nM and 316 nM, respectively.
On to `COc1ccc(Cl)cc1Cn1c(-c2cccc(OCC[C@@H](C)C(=O)O)c2Cl)nc2c(OC3(C)CC3)ncnc21` [Example U75, (R)-4-(2-chloro-3-(9-(5-chloro-2-methoxybenzyl)-6-(1-methylcyclopropoxy)-9H-purin-8-yl)phenoxy)-2-methylbutanoic acid], for which the results for the IC50 in the assay with DLD-1 cells (setting [11]) and in the assay with DLD-1 BRCA2−/− cells (setting [12]) were over 10000 nM and 2 nM, respectively.
`Cc1ccnc(Cn2c(-c3ccc(OC4CNC(=O)C4)cc3Cl)nc3c(OC4(C)CC4)ncnc32)c1` (racemic) [Example T179, 4-(3-chloro-4-(6-(1-methylcyclopropoxy)-9-((4-methylpyridin-2-yl)methyl)-9H-purin-8-yl)phenoxy)pyrrolidin-2-one]: the figures for the IC50 in the assay on DLD-1 cells (setting [1]) and in the assay on DLD-1 BRCA2−/− cells (setting [2]) were over 10000 nM and 316 nM, respectively.
Turning to `COc1cc(-c2nc3c(OC4(C)CC4)ncnc3n2Cc2ccccc2)c(Cl)cc1OCCN1CCNCC1` [Example J2, 9-benzyl-8-(2-chloro-5-methoxy-4-(2-(piperazin-1-yl)ethoxy)phenyl)-6-(1-methylcyclopropoxy)-9H-purine], the results for the IC50 with DLD-1 cells (setting [7]) and in the assay on DLD-1 BRCA2−/− cells (setting [8]) were 3980 nM and 794 nM, respectively.
The like results for `CN1CCN(CCOc2ccc(-c3nc4c(OC5(C)CC5)ncnc4n3Cc3ccccc3Cl)c(Cl)c2)CC1` [Example E1, 8-(2-chloro-4-(2-(4-methylpiperazin-1-yl)ethoxy)phenyl)-9-(2-chlorobenzyl)-6-(1-methylcyclopropoxy)-9H-purine] were, in that order, 2510 nM and 31.6 nM.
Consider `Cc1cnc(Cn2c(-c3cccc(OCCCN(C)C)c3Cl)nc3c(OC4(C)CC4)ncnc32)s1` [Example T149, 3-(2-chloro-3-(6-(1-methylcyclopropoxy)-9-((5-methylthiazol-2-yl)methyl)-9H-purin-8-yl)phenoxy)-N,N-dimethylpropan-1-amine], for which the IC50 in the assay on DLD-1 cells (setting [1]) was over 10000 nM; in the assay with DLD-1 BRCA2−/− cells (setting [2]) it was 316 nM.
On to `COc1ccc(Cl)cc1Cn1c(-c2cccc(OCCCOC(C)(C)C(=O)O)c2Cl)nc2c(OC3(C)CC3)ncnc21` [Example U90, 2-(3-(2-chloro-3-(9-(5-chloro-2-methoxybenzyl)-6-(1-methylcyclopropoxy)-9H-purin-8-yl)phenoxy)propoxy)-2-methylpropanoic acid], for which the values for the IC50 in the assay on DLD-1 cells (setting [11]) and in the assay with DLD-1 BRCA2−/− cells (setting [12]) were over 10000 nM and 5.01 nM, respectively.
With `Cc1ccnc(Cn2c(-c3ccc(S(C)(=O)=O)cc3Cl)nc3c(OC4(C)CC4)ncnc32)c1` [Example T16, 8-(2-chloro-4-(methylsulfonyl)phenyl)-6-(1-methylcyclopropoxy)-9-((4-methylpyridin-2-yl)methyl)-9H-purine], the IC50 is over 10000 nM in the assay with DLD-1 cells (setting [9]) and 794 nM in the assay on DLD-1 BRCA2−/− cells (setting [10]).
With `COc1ccc(F)cc1Cn1c(-c2cccc(OCCC(=O)O)c2Cl)nc2c(OC3(C)CC3)ncnc21` [Example U83, 3-(2-chloro-3-(9-(5-fluoro-2-methoxybenzyl)-6-(1-methylcyclopropoxy)-9H-purin-8-yl)phenoxy)propanoic acid], the IC50 is over 10000 nM in the assay with DLD-1 cells (setting [11]) and 50.1 nM in the assay on DLD-1 BRCA2−/− cells (setting [12]).
